Patent US8501241B1, “Treating cancer with a whole, leech saliva extract” (priority 2012, dated 2013)

Assays:
[1] = test system: Candida albicans ATCC10231; test: Kirby-Bauer disc diffusion; format: cell-based; settings: reference antibiotic disc, 100 units/disc
Excerpt: (§1) Experimental procedures include the following steps: • 1.

[2] = test system: Cryptococcus neoformans ATCC90112; test: Kirby-Bauer disc diffusion; format: cell-based; settings: reference antibiotic disc, 100 units/disc
Excerpt: as §1

[3] = Mortality, behaviour and acute toxicity signs in injected diabetic rats; format: in vivo, rat (Sprague Dawley); settings: insulin 20 units/kg b.w
induced-diabetic rats = test: Antihyperglycemic activity: fall in fasting blood glucose in alloxan-induced diabetic rats; format: in vivo, rat (Sprague Dawley)

Compound	Zone of inhibition (mm) C. albicans [1]	Zone of inhibition (mm) C. neoformance [2]	hypoglycemia and mortality [3]	fasting blood glucose (FBG) (induced-diabetic rats; after two hours of injection)	difference between normal rats and treated diabetic rats (induced-diabetic rats; at either dose)	fasting blood glucose (FBG) (induced-diabetic rats; insulin 10 units/kg b.w, after 8 hours of treatment)
C[C@@H]1[C@H](O)[C@@H](C)/C=C/C=C/CC/C=C/C=C/C=C/C=C/C(O[C@H]2O[C@H](C)[C@@H](O)[C@H](N)[C@@H]2O)CC2O[C@](O)(CC(O)C(O)CCC(O)CC(O)CC(O)CC(=O)O[C@H]1C)CC(O)C2C(=O)O (stereo partly drawn) [Nystatin, nystatin]	10 mm	9 mm	–	–	–	–
insulin: insulin from bovine pancreas (≧27 units/mg)	–	–	hypoglycemic condition in all rats leading to the death of one rat	sharp significant decrease (p<0.001)	No significant difference	returned to the diabetic state
